Data: patent publication US5081123A, “Quinoxaline compound and their preparation and use” (Novo Nordisk A/S, priority 1988, dated 1992)
Values after ≈ are worked out from the molar mass of the structure shown.

Assays:
[1] = biological target: quisqualate receptors (quisqualic acid stimulated 3H-GABA efflux, cultured cortical neurones); assay: Antagonism of quisqualic acid stimulated 3H-GABA efflux from cultured cortical neurones; assay type: cell-based, mouse; conditions: Table 1; test not stated
Procedure: (§1) The pharmacological properties of the compounds of the present invention can be illustrated by determining their capability for displacing radioactively labelled 2-amino-3-hydroxy-5-methyl-4-isoxazolepropionic acid (AMPA) from the quisqualate type receptors.
The antagonism is measured by determining the EC50 value which represents the concentration which reduces the rate of quisqualic acid stimulated ^3 H-GABA efflux by 50%.
Cerebral cortices of 16 day old mouse embryos are chopped in 0.4×0.4 mm cubes. The tissue is dissociated by mild trypsinization (0.1% (wt/vol) trypsin, 37° C., 15 min) and subsequently inoculated into poly-L-lysine-coated 3 cm Petri dishes containing a slightly modified DMEM (24.5 mM KCl, 30 mM glucose) supplemented with p-aminobenzoate (7μM), insulin (100 mU/1) and 10% (vol/vol) horse serum. Cells are maintained in culture for 5-7 days with the addition of the antimitotic agent cytosine arbinoside (40 μM) from day 2 in vitro to prevent glial proliferation. For further details and references see Drejer et al. Exp. Brain Res. 47, 259 (1982)).
Release experiments are performed using the model described by Drejer et al. (Life Sci. 38, 2077 (1986)). Cerebral cortex interneurons cultured in Petri dishes (30 mm) are added 100 μM gamma-vinyl-GABA one hour before the experiment in order to inhibit degradation of GABA in the neurons. 30 min. before the experiment 5 μCi ^3 H-GABA is added to each culture and after this preloading period the cell monolayer at the bottom of the dish is covered with a piece of nylon mesh to protect the cells against mechanical damage and to facilitate dispersion of medium over the cell layer. The preloading medium is removed and the Petri dishes are placed in a superfusion system. This system consists of a peristaltic pump continuously delivering thermostated 37° C. superfusion medium (HEPES buffered saline (HBS): 10 mM HEPES, 135 mM NaCl, 5 mM KCl, […] 1.0 mM CaCl2 and 6 mM D-glucose; pH 7.4) from a reservoir to the top of the slightly tilted Petri dish. The medium is continuously collected from the lower part of the dish and delivered to a fraction collector. Initially, the cells are superfused with HBS for 15 min. (flow rate 2 ml/min.). The cells are stimulated for 30 sec. every 4 min. by changing the superfusion medium from HBS to a corresponding medium containing quisqualate and test compound. The release of ^3 H-GABA in the presence of quisqualate (stimulated release in cpm) are corrected for the mean basal release (Cpm) before and after the stimulation.

[2] = biological target: quisqualate type receptors (3H-AMPA, rat cerebral cortical membrane homogenate); assay: 3H-AMPA binding (displacement from quisqualate type receptors); conditions: 5 nM 3H-AMPA, 0° C., 30 min, pH 7.1
Procedure: as §1
The displacement activity of the compounds may be shown by determining the IC50 value which represents the concentration (μg/ml) which causes a displacement of 50% of the specific binding of ^3 H-AMPA.
500 μl of thawed rat cerebral cortical membrane homogenate in Tris-HCl (30 mM), CaCl2 (2.5 mM) and KSCN (100 mM) pH 7.1 were incubated at 0° C. for 30 min. with 25 μl ^3 H-AMPA (5 nM final concentration) and the test compound and buffer. Nonspecific binding was determined by incubation with L-glutamic acid (600 μM final concentration). The binding reaction was terminated by adding 5 ml of ice-cold buffer followed by filtration through Whatman GF/C glass fibre filters and 2×5 ml wash with ice-cold buffer. Bound radioactivity was measured by scintillation counting. IC50 was determined by Hill analysis of at least four concentrations of test compound.

Structure (SMILES) | EC50 [1] | IC50 (concentration which causes a displacement of 50% of the specific binding of 3H-AMPA) [2]
O=c1[nH]c2c3ccccc3ccc2n(O)c1=O [Example 1b, 4-Hydroxy-benzo[f]quinoxaline-2,3(1H,4H)-dione] | 0.12 µg/mL (≈ 0.526 µM) | 0.61 µg/mL
O=c1[nH]c2c3c(ccc2n(O)c1=O)CCCC3 [Example 5b, 7,8,9,10-Tetrahydro-4-hydroxybenzo[f]quinoxaline-2,3(1H,4H)-dione] | 0.14 µg/mL (≈ 0.603 µM) | 0.49 µg/mL
O=c1[nH]c2c3cccnc3ccc2n(O)c1=O [Example 4b, 4-Hydroxypyrido[3,2-f]quinoxaline-2,3(1H,4H)-dione] | 0.16 µg/mL (≈ 0.698 µM) | 0.23 µg/mL
N#Cc1cc2c([nH]c(=O)c(=O)n2O)c2ccccc12 [Example 2c, 6-Cyano-4-hydroxy-benzo[f]quinoxaline-2,3(1H,4H)-dione] | 0.1 µg/mL (≈ 0.395 µM) | 0.39 µg/mL
